Reference: patent US11660309B2, “Prevention and treatment of inflammatory conditions” (GRI BIO, INC., priority 2011, dated 2023)
“Also recorded” adds a separate entry of the source.

Columns and labels:
[1] = tested on: type I NKT cells; assay: In vitro αGalCer-stimulated proliferation of splenic type I NKT cells ([3H]-thymidine incorporation); format: cell-based, naïve B6 mice; settings: for type I NKT cell proliferation at optimal concentration of RAR agonist: Example 15, αGalCer 10 ng/ml, comparison among ATRA, Tretinoin, AM580, AC55649, CD1530
Method: Retinoic acid receptors (RARs) comprise three major subtypes: RARα, RAR β, and RARγ. The RAR agonist ATRA is not selective for a specific subtype. The contribution of RAR subtypes to inhibition of type I NKT cell activity was tested with subtype-selective RAR agonists as follows. Splenic cells were isolated from naïve B6 (WT) mice and cultured in vitro in the presence of [^3H]-thymidine, an optimal concentration of αGalCer, and graded concentrations of the pan-RAR agonist ATRA, the RARα agonist AM580, the RAR β 2 agonist AC55649 or the RARγ agonist CD1530. Proliferation of the type I NKT cells in response to αGalCer stimulation was measured by [^3H]-thymidine incorporation. […]
In vitro proliferation and cytokine release assays were performed on freshly isolated splenocytes and type I NKT cell hybridomas (1.2 Hyb). The cells were cultured in the presence of [3H]-thymidine and an optimal concentration of αGalCer (10 ng/ml) with titrating concentrations of ATRA, Tretinoin, the RARα agonist AM580, the RAR β agonist AC55649 or the RARγ agonist CD1530. Proliferation of the type I NKT cells in response to αGalCer stimulation was quantified by [^3H]-thymidine incorporation. IL-2 levels were measured using IL-2 sandwich ELISA. Optimal concentrations of the RAR agonists was determined. […]

[2] = tested on: type I NKT cells (Hy1.2); assay: IL-2 secretion by type I NKT cell hybridoma (Hy1.2) with APCs and αGalCer (IL-2 sandwich ELISA); format: cell-based
Method: The affect of ATRA on IL-2 cytokine secretion by a type I NKT cells in response to an in vitro challenge with αGalCer was tested by co-culturing NKT cells (Hy1.2) and irradiated antigen-presenting cells (APCs) in vitro with an optimal concentration of αGalCer in the presence or absence of ATRA (0.15 μg/ml, 1.2 μg/ml, or 18.8 μg/ml) for a period of 16 hours. Supernatants were collected and secreted IL-2 levels were measured using IL-2 sandwich ELISA.
In vitro proliferation and cytokine release assays were performed on freshly isolated splenocytes and type I NKT cell hybridomas (1.2 Hyb). The cells were cultured in the presence of [3H]-thymidine and an optimal concentration of αGalCer (10 ng/ml) with titrating concentrations of ATRA, Tretinoin, the RARα agonist AM580, the RAR β agonist AC55649 or the RARγ agonist CD1530. Proliferation of the type I NKT cells in response to αGalCer stimulation was quantified by [^3H]-thymidine incorporation. IL-2 levels were measured using IL-2 sandwich ELISA. Optimal concentrations of the RAR agonists was determined.
In vitro proliferation and cytokine release assays were performed on freshly isolated splenocytes and type I NKT cell hybridomas (1.2 Hyb). The cells were cultured in the presence of [^3H]-thymidine and an optimal concentration of αGalCer (10 ng/ml) with increasing concentrations of ATRA or Tazarotene. Proliferation of the type I NKT cells in response to αGalCer stimulation was quantified by [H]-thymidine incorporation. IL-2 levels were measured using IL-2 sandwich ELISA.

[3] = tested on: alcohol-induced liver injury; assay: Alcohol-induced liver injury, chronic plus binge ethanol feeding: serum ALT and liver histology; format: in vivo, B6 (WT) male mice
From the text: Following acclimatization with nutritionally adequate Lieber-DeCarli liquid diet for a week, 6-8 week old male C57BL/6J mice (B6) and Jα18−/− mice, which lack type I NKT cells but not type 2 NKT cells, were given free access to a liquid diet containing 5% ethanol or an isocaloric dextrin maltose-containing diet (Bio-Serv, NJ). Precautions were taken to prepare the diet fresh every day using autoclaved water in sterilized feeders, changing feed daily.
B6 and Jα18−/− mice receiving the ethanol-containing diet were separated into two groups, the chronic ethanol feeding group and the chronic plus binge ethanol feeding group. Mice in the chronic ethanol feeding group were fed liquid diet containing 5% ethanol for up to 4-5 weeks. Mice in the chronic plus binge ethanol feeding group were fed liquid diet containing 5% ethanol for 10 days followed by (on day 11) a single high dose of gavaged ethanol (5 g/kg body weight). Mice in the control group were gavaged with isocaloric dextrin maltose. Following gavage, mice were kept on a temperature controlled warm pad and monitored. Though initially slow moving, most mice receiving the high dose of gavaged ethanol regained normal behavior within hours. Mice were euthanized 8-9 hr after gavage. […]
Serum ALT levels were determined for each group of mice. […]

[4] = tested on: MBPAc1-9-reactive CD4+ T cells; assay: Proliferation of MBPAc1-9-reactive CD4+ T cells ([3H]-thymidine incorporation); format: cell-based, naïve B10.PL VB8.2 TCR transgenic mice; settings: ATRA 0.15, 1.2, 18.8 μg/ml
Method: The effect of ATRA on class II MHC-restricted conventional CD4 T Cells was tested by isolating myelin basic protein MBPAc1-9-reactive CD4+ T cells from naïve B10.PL VB8.2 TCR transgenic mice and culturing the cells in vitro with [^3H]-thymidine and an optimal concentration of MBPAc1-9 in the presence or absence of graded concentrations of ATRA (0.15, 1.2, 18.8 μg/ml). Proliferation of the MBPAc1-9-reactive CD4+ T cells was measured by [^3H]-thymidine incorporation.

[5] = tested on: Type I NKT hybridoma cells (Hy1.2); assay: IL-2 secretion by Hy1.2 cells pretreated with ATRA in the absence of antigen-presenting cells; format: cell-based; settings: Hy1.2 pretreated 24 hr with 5, 10 or 20 μg/ml ATRA, washed, then APCs + graded αGalCer, 16 hour
Method: The effect of ATRA treatment on type I NKT cells in the absence of antigen-presenting cells was also measured. Type I NKT hybridoma cells (Hy1.2) were cultured in vitro either without ATRA or with 5 μg/ml, 10 μg/ml, or 20 μg/ml ATRA for 24 hr. The cells were then washed three times and co-cultured with irradiated splenocytes (APCs) in the presence of graded concentrations of the lipid antigen, αGalCer. Supernatants were collected 16 hour later and IL-2 levels were measured using IL-2 sandwich ELISA.

[6] = tested on: liver type I NKT cells; assay: Flow cytometry count of liver type I NKT cells (αGalCer/CD1d-tetramer/TCRβ) after in vivo administration; settings: mice injected i.p. 15 mg/kg daily for 5 days
Method: (§1) Functional changes in type I NKT cells following in vivo administration of Tazarotene or ATRA was tested. Groups of mice were injected intraperitoneally with […] (15 mg/kg), 300 μg Tazarotene (15 mg/kg) or vehicle (DMSO) daily for a period of 5 days. Splenic Type I NKT cells were purified and cultured in vitro with increasing concentrations of αGalCer. Cell proliferation was measured by quantification of [^3H]-thymidine incorporation and the results are shown at FIG. 17.
Mononuclear cells were isolated from livers of mice injected with either ATRA, Tazarotene or vehicle (DMSO) and stained with αGalCer/CD1d-tetramer and a pan anti-TCRβ antibodies. Flowcytometry was performed and the population of αGalCer/CD1d-tetramer/TCRβ expressing cells (type I NKT cells) was quantified as shown in FIG. 18.

[7] = tested on: type I NKT cells; assay: Ex vivo proliferation and cytokine response to αGalCer of type I NKT cells from RAR agonist injected mice; format: in vivo; settings: for proliferative response of splenic type I NKT cells to αGalCer stimulation: Example 17, cells from mice injected i.p. 15 mg/kg daily for 5 days, vs vehicle (DMSO)
Method: Functional changes in type I NKT cells following ATRA administration were further tested. In two independent experiments, groups of Black 6 (WT) mice were injected intraperitoneally with 0.3 mg/animal (˜15 mg/Kg body weight) ATRA or vehicle (DMSO) daily for a period of 5 days. Type I NKT cells were purified and cultured in vitro with increasing concentrations of αGalCer. Cell proliferation was measured and supernatants were collected. The cytokine response of the isolated type I NKT after in vitro challenge with αGalCer was determined by sandwich ELISA for IFN-γ, IL-4, IL-6, IL-10, IL-12, and IL-13. […] No secretion of IFN-γ, IL-6, IL-10, IL-12, or IL-13 in response to αGalCer stimulation was detected from type I NKT cells isolated from ATRA injected mice.
as §1

[8] = Example 16, 1.2 Hyb, αGalCer 10 ng/ml, increasing concentrations of ATRA or Tazarotene
[9] = cells from mice injected i.p. with 0.3 mg/animal ATRA daily for 5 days
[10] = Example 16, splenocytes, αGalCer 10 ng/ml, increasing concentrations of ATRA or Tazarotene

CCCCCCCCc1ccc(-c2ccc(C(=O)O)cc2)cc1 [AC55649]
type I NKT cell proliferation in response to αGalCer ([1]; Example 12, 10^1 μg/ml): low or minimal proliferation | type I NKT cell proliferation in response to αGalCer ([1]; Example 12, graded concentrations up to (below) 10^1 μg/ml): Reduced cell proliferation

O=C(O)c1ccc(-c2ccc3cc(O)c(C45CC6CC(CC(C6)C4)C5)cc3c2)cc1 [CD1530]
IL-2 secretion at optimal concentration of RAR agonist ([2]; Example 15, 1.2 Hyb, αGalCer 10 ng/ml, comparison among RAR agonists): lowest levels of IL-2 secretion | type I NKT cell proliferation in response to αGalCer ([1]; Example 12, 10^1 μg/ml): low or minimal proliferation | type I NKT cell proliferation at optimal concentration of RAR agonist [1]: lowest levels of proliferation

CC1=C(/C=C/C(C)=C/C=C/C(C)=C/C(=O)O)C(C)(C)CCC1 [ATRA, all trans retinoic acid]
protection from liver damage following excess alcohol consumption (summary of FIGS. 6 and 7) [3]: significantly inhibits liver damage | liver histology for hepatic steatohepatitis (fatty liver disease) ([3]; B6 mice, sulfatide or ATRA injected): little sign of fatty liver disease; also recorded: appears relatively normal | MBPAc1-9-stimulated proliferation of CD4+ T cells [4]: No inhibition; also recorded: does not directly inhibit | IL-2 secretion [5]: inhibits IL-2 secretion | numbers of type I NKT cells in the livers vs control [6]: no significant difference | IL-2 secretion ([2]; 0.15 μg/ml ATRA, αGalCer, irradiated APCs, 16 hours): not significantly affected | IL-2 secretion ([2]; 1.2 μg/ml ATRA, αGalCer, irradiated APCs, 16 hours): significant reductions | IL-2 secretion ([2]; 18.8 μg/ml ATRA, αGalCer, irradiated APCs, 16 hours): greatest reduction | IL-2 secretion [2, 8]: inhibit | proliferative response of splenic type I NKT cells to αGalCer stimulation [7]: inhibits type I NKT cell activity | proliferation of type I NKT cells in response to αGalCer stimulation ([7]; cells from WT mice injected i.p. with 0.3 mg/animal ATRA daily for 5 days): did not proliferate | IFN-γ secretion in response to αGalCer stimulation [7, 9]: No secretion | IL-4 secretion in response to αGalCer stimulation [7, 9]: Reduced levels | IL-6 secretion in response to αGalCer stimulation [7, 9]: No secretion | IL-10 secretion in response to αGalCer stimulation [7, 9]: No secretion | IL-12 secretion in response to αGalCer stimulation [7, 9]: No secretion | IL-13 secretion in response to αGalCer stimulation [7, 9]: No secretion | αGalCer-induced type I NKT cell proliferation compared with αGalCer alone ([1]; 0.15 μg/ml ATRA + αGalCer): similar | αGalCer-induced type I NKT cell proliferation compared with αGalCer alone ([1]; 1.2 μg/ml ATRA + αGalCer): reduced | αGalCer-induced type I NKT cell proliferation compared with αGalCer alone ([1]; 18.8 μg/ml ATRA + αGalCer): greatest inhibition | type I NKT cell proliferation ([1]; ATRA alone, no αGalCer): No or minimal proliferation | type I NKT cell proliferation in response to αGalCer ([1]; Example 12, 10^1 μg/ml): low or minimal proliferation | type I NKT cell proliferation in response to αGalCer ([1]; Example 14, 10^1 μg/ml): no or minimal proliferation | type I NKT cell proliferation at optimal concentration of RAR agonist [1]: lowest levels of proliferation | type I NKT cell proliferation [1, 10]: inhibit

Tazarotene
numbers of type I NKT cells in the livers vs control [6]: no significant difference | IL-2 secretion [2, 8]: achieves its inhibitory effects at lower concentrations | proliferative response of splenic type I NKT cells to αGalCer stimulation [7]: lowest levels of proliferation | type I NKT cell proliferation [1, 10]: achieves its inhibitory effects at lower concentrations; also recorded: better inhibition of type I NKT cells than ATRA

CC1(C)CCC(C)(C)c2cc(C(=O)Nc3ccc(C(=O)O)cc3)ccc21 [AM580]
type I NKT cell proliferation in response to αGalCer ([1]; Example 12, 10^1 μg/ml): proliferation was maintained
